Measurements reported in patent US4228304A, “Novel cyclohexanecarboxylic acid and its derivatives” (Hisamitsu Pharmaceutical Co. Inc., priority 1977, dated 1980).

Tests used:
[1] = system: lung fragment of guinea pig; assay: Mediator (histamine) release on lung fragment of guinea pig; assay type: cell-based, guinea pig (Hartley strain); details: 10^-4 g/ml
Protocol: (4) Mediator release on lung fragment of guinea pig.
A group of Hartley strain male guinea pigs (body weight 250-300 g) were administered intraperitoneally anti-BPO-BGG IgE serum. The animals were sacrificed by decapitation, and those sensitized lungs were isolated for use. […] Following 10 minute incubation, the amount of the released histamine were determined by bioassay.

[2] = system: Picryl Chloride induced contact dermatitis; assay: Picryl Chloride induced contact dermatitis; assay type: in vivo, mouse (ddY strain); details: Mus musculus, po; 100 mg/kg, orally; ear swelling 24 hours after second challenge
Protocol: (3) Picryl Chloride induced contact dermatitis
At first 0.1 ml of 7% picryl chloride-ethanol solution was applied to skin of the depilated abdomens (area 2.5×15 mm) of ddY-strain male mice (body weight 20-22 g). After one week each 0.02 ml of 1% picryl chloride-olive oil solution was applied topically to the ears of the mouse. […] After three days 0.1 ml of 7% picryl chloride-ethanol solution was applied again to the depilated abdomens of the mice. After one week, each 0.02 ml of 1% picryl chloride-olive oil solution per ear were applied topically to the bilateral ears, and at same time, the test compounds were administered orally. Immediately before and 24 hours after the second challenge, the thickness of the ears was measured and the swelling was calculated. The percent inhibitions were calculated by the ratio of the each swelling to the control.

[3] = Acute toxicity (rabbit); details: in vivo, po; female rabbit
[4] = Acute toxicity (dog); assay type: in vivo; details: in vivo, po; male dog
[5] = system: dog; assay: Acute toxicity (dog); assay type: in vivo; details: female dog, p.o.; 30240 min
[6] = Acute toxicity (rat); details: in vivo
Protocol: (§1) Each test compound suspended in 0.5% tragacanth gum-saline was administered orally, subcutaneously or intraperitoneally to animals ddY strain mouse and Wistar strain rats. The 50% lethal dose and the 95% confidence limit were calculated by Litchfield-Wilcoxon's method from the death of animals in 3 weeks following administration.

[7] = Acute toxicity (mouse); details: in vivo
Protocol: as §1

[8] = system: passive cutaneous anaphylaxis in rat; assay: Homologeous passive cutaneous anaphylaxis in rat; assay type: in vivo, rat (Wistar strain); details: 100 mg/kg, orally; exuded pigment vs control
Protocol: (2) Homologeous passive cutaneous anaphylaxis in rat Each test compound suspended in 0.5% tragacanth gum-distilled water was administered orally to a group of five male Wistar strain rats (body weight 150-200 g). After one hour 0.1 ml of 5% anti-Dinitrophinol conpled Ascaris rat IgE serum-physiological sodium chloride solution was injected intradermally to dorsum of the rat. […] The animals were sacrificed by decapitation 30 minutes after the injection. Thereafter the skin of the animals were removed and the amount of the pigment exuded into the inflamed skin was determined. The percent inhibitions were calculated by the ratio of the amounts of exuded pigments to the control.

[9] = system: rat adjuvant polyarthritis; assay: Effect on rat adjuvant polyarthritis; assay type: in vivo, rat (Sprague Dawley strain); details: oral daily: Compound No. 1 200 mg/kg, Ibuprofen 50 mg/kg, Prednisolone 0.5 mg/kg
Protocol: (5) Effect on rat adjuvant polyarthritis
A group of eight to ten male Sprague Dawley strain rats (body weight 240-280 g) were used. 0.1 ml of Complete Freuind's adjuvant (CFA, Mycobacterium butyricum, 100 mg/10 cc) was injected intradermally to the right hind sole.

With CC(C)CCC[C@H]1CC[C@@](C)(C(=O)O)CC1 [Compound No. 1, cis-4-isohexyl-1-methylcyclohexanecarboxylic acid] the “inhibition (released histamine)” value [1] was 24.2%, the inhibition in vivo at 100 mg/kg [2] was 49% and the LD50 at 504 h [3] was > 6000 mg/kg. The LD50 at 504 h [4] was > 5000 mg/kg, the LD50 [5] was > 5000 mg/kg and the LD50 at 504 h ([6]; ip, female rat) was 1690 mg/kg. For the same molecule, the LD50 at 504 h ([6]; ip, male rat) was 2070 mg/kg, the LD50 at 504 h ([6]; po, female rat) was > 10000 mg/kg and the LD50 at 504 h ([6]; po, male rat) was > 10000 mg/kg. The LD50 at 504 h ([6]; sc, female rat) was > 10000 mg/kg, the LD50 at 504 h ([6]; sc, male rat) was > 10000 mg/kg and the LD50 at 504 h ([7]; ip, female mouse) was 998 mg/kg. It also gave an LD50 at 504 h ([7]; ip, male mouse) of 1110 mg/kg, an LD50 at 504 h ([7]; po, female mouse) of 6390 mg/kg and an LD50 at 504 h ([7]; po, male mouse) of 5950 mg/kg. For the same molecule, the LD50 at 504 h ([7]; sc, female mouse) was > 10000 mg/kg, the LD50 at 504 h ([7]; sc, male mouse) was > 10000 mg/kg and the Inhibition [8] was 28%. The “Swelling percent of left hind paw (non-treatment of CFA)” value ([9]; day 0) was -1.3±1.8%, the “Swelling percent of right hind paw (treatment of CFA)” value (shortened to “Swelling percent of right hind paw”) ([9]; day 0) was 118.1± 5.0% and the “Swelling percent of left hind paw (non-treatment of CFA)” value ([9]; day 1) was -3.0±1.2%. The “Swelling percent of right hind paw” value ([9]; day 1) was 100.0± 5.3%, the “Swelling percent of left hind paw (non-treatment of CFA)” value ([9]; day 4) was -0.8±2.0% and the “Swelling percent of right hind paw” value ([9]; day 4) was 255.4±13.8%. For the same molecule, the “Swelling percent of left hind paw (non-treatment of CFA)” value ([9]; day 7) was 4.5±3.3%, the “Swelling percent of right hind paw” value ([9]; day 7) was 216.3±12.8% and the “Swelling percent of left hind paw (non-treatment of CFA)” value ([9]; day 10) was 11.8±2.4%. The “Swelling percent of right hind paw” value ([9]; day 10) was 173.8± 7.1%, the “Swelling percent of left hind paw (non-treatment of CFA)” value ([9]; day 14) was 13.3±1.6% and the “Swelling percent of right hind paw” value ([9]; day 14) was 169.5± 8.0%. For the same molecule, the “Swelling percent of left hind paw (non-treatment of CFA)” value ([9]; day 17) was 13.2±1.7%, the “Swelling percent of right hind paw” value ([9]; day 17) was 166.0± 8.6% and the “Swelling percent of left hind paw (non-treatment of CFA)” value ([9]; day 21) was 8.5±2.0%. For the same molecule, the “Swelling percent of right hind paw” value ([9]; day 21) was 163.0±10.5%.
